Assay results taken from patent US7378532B2, “Fused pyrazolyl compound” (Yung Shin Pharmaceutical Ind. Co., Ltd., priority 2004, dated 2008).

Columns and labels:
[1] = test system: Human lung cancer cells, NCI-H226; experiment: Inhibition of cancer cell growth (sulforhodamine B assay); assay type: cell-based; details: human lung cancer cells NCI-H226, 48 hr incubation, eight concentrations, SRB stain, absorbance 515 nm
Method: Human lung cancer cells, NCI-H226, were placed in 96-well microtiter plates (5,000 cells/100 μl/well). The plates were incubated at 37° C. under 5% CO2 and 95% air and 100% relative humidity for 24 hr. Cells in one plate were fixed in situ with trichloroacetic acid (TCA) to measure the cell population.
Compound 1 was dissolved in dimethylsulfoxide (DMSO) to give a solution at 400-fold the desired final maximum test concentration and stored frozen. An aliquot of the frozen DMSO solution was thawed and diluted to twice the desired final maximum test concentration. Additional ½ log serial dilutions were made to provide a total of eight concentrations. 100 μl aliquots of these different dilutions were added to the microtiter wells, resulting in the required final drug concentrations. After Compound 1 was added, the plates were incubated at 37° C. under 5% CO2 and 95% air and 100% relative humidity for an additional 48 hr. The cells were fixed in situ by slow addition of 50 μl of cold 50% (w/v) TCA and incubated at 4° C. for 60 minutes. The supernatant was removed, and the plates were gently washed twice with water and air-dried. […] The bound stain was subsequently solubilized with 10 mM trizma base, and absorbance was measured by an automated plate reader at the wavelength of 515 nm.

melting point [°C] | Compound | inhibition of growth of NCI-H226 [1]
– | O=C(O)CCC(=O)OCc1ccc(-c2nn(Cc3ccccc3)c3ccccc23)o1 [Compound 1, succinic acid mono-[5-(1-benzyl-1H-indazol-3-yl)-furan-2-ylmethyl]ester] | effectively inhibited growth of NCI—H226
126.3 to 129 | Cc1cc2c(o1)c(-c1ccc(COC(=O)CCC(=O)O)o1)nn2Cc1ccccc1 [Compound 7, succinic acid mono-[5-(1-benzyl-5-methyl-1H-furo[3,2-C]pyrazol-3-yl)-furan-2-ylmethyl]ester] | –
111 to 112.7 | O=C(O)CCC(=O)OCc1ccc(-c2nn(-c3ccc(Br)cc3)c3ccccc23)o1 [Compound 12, succinic acid mono-[5-(1-(4-bromo-phenyl)-1H-indazol-3-yl)-furan-2-ylmethyl]ester] | –
